Organism: Rattus norvegicus
Assay: Open TG-GATES - Regimen: Single
Format: toxicity, organism-based, Sprague-Dawley
Set-up: regimen Single, gender Male, age 6 weeks
Conditions: in vivo, po, 10 mg/kg, route gavage, dose level Middle; for APTT / Bas / Eos / Fbg / Hb / Ht / Lym / MCH / MCHC / MCV / Mono / Neu / PT / Plat / RBC / Ret / WBC: tissue Blood; for KIDNEY_L / KIDNEY_R / KIDNEY_TOTAL: tissue Kidney; for LIVER: tissue Liver; for A/G / ALP / ALT / AST / BUN / CRE / Ca / Cl / DBIL / GLC / IP / K / LDH / Na / PL / RALB / TBIL / TC / TG / TP / gamma-GTP: tissue Plasma

CN(C)CCC(c1ccc(Cl)cc1)c1ccccn1 (configuration not stated) [CHLORPHENIRAMINE]
TERMINAL_BW (3 h): 196.8 g | APTT (3 h): 19.7 s | Bas (3 h): 0% | Eos (3 h): 0.4% | Fbg (3 h): 295.8 mg/dL | Hb (3 h): 13.5 g/dL | Ht (3 h): 42% | Lym (3 h): 77.4% | MCH (3 h): 21.3 pg | MCHC (3 h): 32.1% | MCV (3 h): 66.1 fL | Mono (3 h): 3% | Neu (3 h): 18.2% | PT (3 h): 14.7 s | Plat (3 h): 126.4 x10_4/uL | RBC (3 h): 634 x10_4/ul | Ret (3 h): 9.7% | WBC (3 h): 73.4 x10_2/uL | KIDNEY_L (3 h): 0.8 g | KIDNEY_R (3 h): 0.8 g | KIDNEY_TOTAL (3 h): 1.6 g | LIVER (3 h): 9 g | A/G (3 h): 0.9 | ALP (3 h): 1551 IU/L | ALT (3 h): 47.4 IU/L | AST (3 h): 74.6 IU/L | BUN (3 h): 9.2 mg/dL | CRE (3 h): 0.2 mg/dL | Ca (3 h): 10.9 mg/dL | Cl (3 h): 107.6 meq/L | DBIL (3 h): 0.006 mg/dL | GLC (3 h): 180.2 mg/dL | IP (3 h): 10.3 mg/dL | K (3 h): 4.1 meq/L | LDH (3 h): 200.6 IU/L | Na (3 h): 144.6 meq/L | PL (3 h): 156 mg/dL | RALB (3 h): 2.6 g/dL | TBIL (3 h): 0.046 mg/dL | TC (3 h): 84.6 mg/dL | TG (3 h): 75 mg/dL | TP (3 h): 5.5 g/dL | gamma-GTP (3 h): 1 IU/L | TERMINAL_BW (6 h): 195.1 g | APTT (6 h): 21.5 s | Bas (6 h): 0% | Eos (6 h): 1% | Fbg (6 h): 297 mg/dL | Hb (6 h): 13.2 g/dL | Ht (6 h): 41% | Lym (6 h): 74.4% | MCH (6 h): 20.6 pg | MCHC (6 h): 32.2% | MCV (6 h): 64 fL | Mono (6 h): 3% | Neu (6 h): 20.8% | PT (6 h): 14.9 s | Plat (6 h): 129.3 x10_4/uL | RBC (6 h): 641.2 x10_4/ul | Ret (6 h): 8.8% | WBC (6 h): 74.4 x10_2/uL | KIDNEY_L (6 h): 0.8 g | KIDNEY_R (6 h): 0.9 g | KIDNEY_TOTAL (6 h): 1.7 g | LIVER (6 h): 8.4 g | A/G (6 h): 0.9 | ALP (6 h): 1438.8 IU/L | ALT (6 h): 42.2 IU/L | AST (6 h): 73.4 IU/L | BUN (6 h): 7.8 mg/dL | CRE (6 h): 0.2 mg/dL | Ca (6 h): 10.5 mg/dL | Cl (6 h): 107 meq/L | DBIL (6 h): 0.006 mg/dL | GLC (6 h): 177.4 mg/dL | IP (6 h): 10.1 mg/dL | K (6 h): 4.2 meq/L | LDH (6 h): 176 IU/L | Na (6 h): 142.6 meq/L | PL (6 h): 140.6 mg/dL | RALB (6 h): 2.5 g/dL | TBIL (6 h): 0.04 mg/dL | TC (6 h): 80.8 mg/dL | TG (6 h): 42.6 mg/dL | TP (6 h): 5.5 g/dL | gamma-GTP (6 h): 1.6 IU/L | TERMINAL_BW (9 h): 192.7 g | APTT (9 h): 17.7 s | Bas (9 h): 0% | Eos (9 h): 1% | Fbg (9 h): 292.6 mg/dL | Hb (9 h): 13.3 g/dL | Ht (9 h): 41.3% | Lym (9 h): 76.2% | MCH (9 h): 20.8 pg | MCHC (9 h): 32.3% | MCV (9 h): 64.3 fL | Mono (9 h): 1.8% | Neu (9 h): 20.6% | PT (9 h): 15.1 s | Plat (9 h): 123.4 x10_4/uL | RBC (9 h): 643.8 x10_4/ul | Ret (9 h): 8.5% | WBC (9 h): 67.8 x10_2/uL | KIDNEY_L (9 h): 0.9 g | KIDNEY_R (9 h): 0.9 g | KIDNEY_TOTAL (9 h): 1.8 g | LIVER (9 h): 7.5 g | A/G (9 h): 0.9 | ALP (9 h): 1406.4 IU/L | ALT (9 h): 35.2 IU/L | AST (9 h): 69 IU/L | BUN (9 h): 7.2 mg/dL | CRE (9 h): 0.1 mg/dL | Ca (9 h): 10.4 mg/dL | Cl (9 h): 105.6 meq/L | DBIL (9 h): 0.008 mg/dL | GLC (9 h): 162 mg/dL | IP (9 h): 10.4 mg/dL | K (9 h): 4 meq/L | LDH (9 h): 145.2 IU/L | Na (9 h): 142.4 meq/L | PL (9 h): 131.2 mg/dL | RALB (9 h): 2.5 g/dL | TBIL (9 h): 0.054 mg/dL | TC (9 h): 80 mg/dL | TG (9 h): 37.8 mg/dL | TP (9 h): 5.5 g/dL | gamma-GTP (9 h): 1.4 IU/L | TERMINAL_BW (24 h): 209.2 g | APTT (24 h): 21.6 s | Bas (24 h): 0% | Eos (24 h): 0.8% | Fbg (24 h): 287.6 mg/dL | Hb (24 h): 12.5 g/dL | Ht (24 h): 38.8% | Lym (24 h): 76.4% | MCH (24 h): 20.7 pg | MCHC (24 h): 32.4% | MCV (24 h): 63.9 fL | Mono (24 h): 3.8% | Neu (24 h): 18.2% | PT (24 h): 14.8 s | Plat (24 h): 118.2 x10_4/uL | RBC (24 h): 606.6 x10_4/ul | Ret (24 h): 8.5% | WBC (24 h): 79.8 x10_2/uL | KIDNEY_L (24 h): 0.9 g | KIDNEY_R (24 h): 0.9 g | KIDNEY_TOTAL (24 h): 1.7 g | LIVER (24 h): 9 g | A/G (24 h): 0.9 | ALP (24 h): 1569.6 IU/L | ALT (24 h): 46.4 IU/L | AST (24 h): 77.8 IU/L | BUN (24 h): 14.8 mg/dL | CRE (24 h): 0.2 mg/dL | Ca (24 h): 10.8 mg/dL | Cl (24 h): 106.6 meq/L | DBIL (24 h): 0.01 mg/dL | GLC (24 h): 184.2 mg/dL | IP (24 h): 8.2 mg/dL | K (24 h): 4.3 meq/L | LDH (24 h): 132.2 IU/L | Na (24 h): 142.8 meq/L | PL (24 h): 142.8 mg/dL | RALB (24 h): 2.6 g/dL | TBIL (24 h): 0.04 mg/dL | TC (24 h): 76.4 mg/dL | TG (24 h): 82.6 mg/dL | TP (24 h): 5.5 g/dL | gamma-GTP (24 h): 1.2 IU/L

— ChEMBL document CHEMBL3885861, “Open TG-GATES”
